Assay results: PubChem BioAssay (NCI)
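Where inhibition never reached the appropriate level, the endpoint shown equals the highest concentration tested. Otherwise, values were interpolated linearly from a five-concentration, 48-hour dose response in 96-well plates. At the GI50, growth is halved. TGI denotes the concentration required for complete inhibition of growth.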

Experiments:
Test in all cases: NCI tumour cell line growth inhibition, 48 h
786-0 renal = system: 786-0 renal
A498 renal = system: A498 renal
A549 NSCLC = system: A549 NSCLC
ACHN renal = system: ACHN renal
BT-549 breast = system: BT-549 breast
CAKI-1 renal = system: CAKI-1 renal
CCRF-CEM leukemia = system: CCRF-CEM leukemia
COLO 205 colon = system: COLO 205 colon
DU-145 prostate = system: DU-145 prostate
EKVX NSCLC = system: EKVX NSCLC
HCC-2998 colon = system: HCC-2998 colon
HCT-116 colon = system: HCT-116 colon
HCT-15 colon = system: HCT-15 colon
HL-60(TB) leukemia = system: HL-60(TB) leukemia
HOP-62 NSCLC = system: HOP-62 NSCLC
HOP-92 NSCLC = system: HOP-92 NSCLC
HS 578T breast = system: HS 578T breast
HT29 colon = system: HT29 colon
IGROV1 ovarian = system: IGROV1 ovarian
K-562 leukemia = system: K-562 leukemia
KM12 colon = system: KM12 colon
LOX IMVI melanoma = system: LOX IMVI melanoma
M14 melanoma = system: M14 melanoma
MCF7 breast = system: MCF7 breast
MDA-MB-231 breast = system: MDA-MB-231 breast
MDA-MB-435 = system: MDA-MB-435
MOLT-4 leukemia = system: MOLT-4 leukemia
NCI-H226 lung = system: NCI-H226 lung
NCI-H23 lung = system: NCI-H23 lung
NCI-H460 lung = system: NCI-H460 lung
NCI-H522 lung = system: NCI-H522 lung
NCI/ADR-RES ovarian = system: NCI/ADR-RES ovarian
OVCAR-3 ovarian = system: OVCAR-3 ovarian
OVCAR-4 ovarian = system: OVCAR-4 ovarian
OVCAR-5 ovarian = system: OVCAR-5 ovarian
OVCAR-8 ovarian = system: OVCAR-8 ovarian
PC-3 prostate = system: PC-3 prostate
RPMI-8226 leukemia = system: RPMI-8226 leukemia
RXF 393 renal = system: RXF 393 renal
SF-268 CNS = system: SF-268 CNS
SF-295 CNS = system: SF-295 CNS
SF-539 CNS = system: SF-539 CNS
SK-MEL-2 melanoma = system: SK-MEL-2 melanoma
SK-MEL-28 melanoma = system: SK-MEL-28 melanoma
SN12C renal = system: SN12C renal
SNB-19 CNS = system: SNB-19 CNS
SNB-75 CNS = system: SNB-75 CNS
SR leukemia = system: SR leukemia
SW-620 colon = system: SW-620 colon
T-47D breast = system: T-47D breast
TK-10 renal = system: TK-10 renal
U251 CNS = system: U251 CNS
UACC-257 melanoma = system: UACC-257 melanoma
UACC-62 melanoma = system: UACC-62 melanoma
UO-31 renal = system: UO-31 renal
SK-MEL-5 melanoma = system: SK-MEL-5 melanoma
SK-OV-3 ovarian = system: SK-OV-3 ovarian

Work on `COC1C(O)CC(OC2CC(OC3CC(O[C@@H]4C(=O)c5c(cc6cc(OC7CC(OC8CC(O)C(O)C(C)O8)C(O)C(C)O7)c(C)c(O)c6c5O)CC4[C@H](OC)C(=O)C(C)=O)OC(C)C3O)OC(C)C2O)OC1C` (stereo partly drawn) yielded a GI50 (786-0 renal) of 33.1 nM, a TGI (786-0 renal) greater than 33300 nM and a GI50 (A498 renal) of 23.3 nM. The TGI (A498 renal) was 88.4 nM, the GI50 (A549 NSCLC) was 15.9 nM and the TGI (A549 NSCLC) was greater than 33300 nM. It also gave a GI50 (ACHN renal) of 52 nM, a TGI (ACHN renal) greater than 33300 nM and a GI50 (BT-549 breast) of 10 nM. For the same molecule, the TGI (BT-549 breast) was 33.5 nM, the GI50 (CAKI-1 renal) was 41.5 nM and the TGI (CAKI-1 renal) was greater than 33300 nM. For the same molecule, the GI50 (CCRF-CEM leukemia) was 15.6 nM, the TGI (CCRF-CEM leukemia) was 673 nM and the GI50 (COLO 205 colon) was 12.1 nM. For the same molecule, the TGI (COLO 205 colon) was 31.9 nM, the GI50 (DU-145 prostate) was 15.5 nM and the TGI (DU-145 prostate) was greater than 32200 nM. It also gave a GI50 (EKVX NSCLC) of 20.1 nM, a TGI (EKVX NSCLC) greater than 33300 nM and a GI50 (HCC-2998 colon) of 10.6 nM. It also gave a TGI (HCC-2998 colon) of 40.2 nM, a GI50 (HCT-116 colon) of 11.2 nM and a TGI (HCT-116 colon) greater than 33300 nM. It also gave a GI50 (HCT-15 colon) of 101 nM, a TGI (HCT-15 colon) greater than 33300 nM and a GI50 (HL-60(TB) leukemia) of 15.9 nM. For the same molecule, the TGI (HL-60(TB) leukemia) was 59.4 nM, the GI50 (HOP-62 NSCLC) was 8.95 nM and the TGI (HOP-62 NSCLC) was 26.9 nM. The GI50 (HOP-92 NSCLC) was 10.8 nM, the TGI (HOP-92 NSCLC) was 66.9 nM and the GI50 (HS 578T breast) was 11.1 nM. The TGI (HS 578T breast) was greater than 11300 nM, the GI50 (HT29 colon) was 12.2 nM and the TGI (HT29 colon) was 53.5 nM. For the same molecule, the GI50 (IGROV1 ovarian) was 15.9 nM, the TGI (IGROV1 ovarian) was greater than 33300 nM and the GI50 (K-562 leukemia) was 15.8 nM. For the same molecule, the GI50 (KM12 colon) was 10.9 nM, the TGI (KM12 colon) was greater than 16000 nM and the GI50 (LOX IMVI melanoma) was 8.5 nM. For the same molecule, the TGI (LOX IMVI melanoma) was 22.9 nM, the GI50 (M14 melanoma) was 8.43 nM and the TGI (M14 melanoma) was 21.4 nM. It also gave a GI50 (MCF7 breast) of 10.8 nM, a TGI (MCF7 breast) greater than 33300 nM and a GI50 (MDA-MB-231 breast) of 49.5 nM. For the same molecule, the TGI (MDA-MB-231 breast) was greater than 33300 nM, the GI50 (MDA-MB-435) was 14.9 nM and the TGI (MDA-MB-435) was 34.3 nM. It also gave a GI50 (MOLT-4 leukemia) of 12.3 nM, a TGI (MOLT-4 leukemia) of 60.7 nM and a GI50 (NCI-H226 lung) of 13.2 nM. The GI50 (NCI-H23 lung) was 12.5 nM, the TGI (NCI-H23 lung) was 66.1 nM and the GI50 (NCI-H460 lung) was 12 nM. The TGI (NCI-H460 lung) was greater than 33300 nM, the GI50 (NCI-H522 lung) was 8.77 nM and the TGI (NCI-H522 lung) was 32.1 nM. It also gave a GI50 (NCI/ADR-RES ovarian) of 433 nM, a TGI (NCI/ADR-RES ovarian) greater than 33300 nM and a GI50 (OVCAR-3 ovarian) of 13.1 nM. The TGI (OVCAR-3 ovarian) was 67.3 nM, the GI50 (OVCAR-4 ovarian) was 24.5 nM and the TGI (OVCAR-4 ovarian) was 10800 nM. It also gave a GI50 (OVCAR-5 ovarian) of 23.4 nM, a TGI (OVCAR-5 ovarian) greater than 33300 nM and a GI50 (OVCAR-8 ovarian) of 13.2 nM. The TGI (OVCAR-8 ovarian) was greater than 33300 nM, the GI50 (PC-3 prostate) was less than 14.2 nM and the TGI (PC-3 prostate) was greater than 22600 nM. For the same molecule, the GI50 (RPMI-8226 leukemia) was 10.6 nM, the TGI (RPMI-8226 leukemia) was 206 nM and the GI50 (RXF 393 renal) was 25.2 nM. For the same molecule, the TGI (RXF 393 renal) was 103 nM, the GI50 (SF-268 CNS) was 13.7 nM and the TGI (SF-268 CNS) was 138 nM. The GI50 (SF-295 CNS) was 11 nM, the GI50 (SF-539 CNS) was 9.76 nM and the TGI (SF-539 CNS) was 27.4 nM. It also gave a GI50 (SK-MEL-2 melanoma) of 9.27 nM, a TGI (SK-MEL-2 melanoma) of 27.5 nM and a GI50 (SK-MEL-28 melanoma) of 10.6 nM. It also gave a TGI (SK-MEL-28 melanoma) of 52.8 nM, a GI50 (SN12C renal) of 13.8 nM and a TGI (SN12C renal) greater than 33300 nM. It also gave a GI50 (SNB-19 CNS) of 10.5 nM, a TGI (SNB-19 CNS) greater than 33300 nM and a GI50 (SNB-75 CNS) of 6.78 nM. The TGI (SNB-75 CNS) was 20 nM, the GI50 (SR leukemia) was 9.1 nM and the TGI (SR leukemia) was 64.5 nM. The GI50 (SW-620 colon) was 15.5 nM, the TGI (SW-620 colon) was greater than 33300 nM and the GI50 (T-47D breast) was 12 nM. It also gave a TGI (T-47D breast) of 79.1 nM, a GI50 (TK-10 renal) of 20.4 nM and a TGI (TK-10 renal) of 75.8 nM. The GI50 (U251 CNS) was less than 10.6 nM, the TGI (U251 CNS) was greater than 33300 nM and the GI50 (UACC-257 melanoma) was 10.7 nM. For the same molecule, the TGI (UACC-257 melanoma) was 41.4 nM, the GI50 (UACC-62 melanoma) was 7.19 nM and the TGI (UACC-62 melanoma) was 16.7 nM. For the same molecule, the GI50 (UO-31 renal) was less than 20 nM.
`C=C1C(=O)OC2C1C(=O)C/C(C)=C/CCC1(C)OC21` (stereo not drawn) gave a TGI (786-0 renal) of 31800 nM, a TGI (A498 renal) of 49600 nM and a TGI (A549 NSCLC) of 37800 nM. The TGI (ACHN renal) was 22200 nM, the TGI (BT-549 breast) was 54600 nM and the TGI (CAKI-1 renal) was 28600 nM. It also gave a TGI (CCRF-CEM leukemia) greater than 100000 nM, a TGI (COLO 205 colon) of 18000 nM and a TGI (DU-145 prostate) of 32100 nM. It also gave a TGI (EKVX NSCLC) of 61200 nM, a TGI (HCC-2998 colon) of 35300 nM and a TGI (HCT-116 colon) of 33500 nM. It also gave a TGI (HCT-15 colon) of 28600 nM, a TGI (HL-60(TB) leukemia) of 7230 nM and a TGI (HOP-62 NSCLC) of 28000 nM. It also gave a TGI (HOP-92 NSCLC) of 41700 nM, a TGI (HS 578T breast) greater than 100000 nM and a TGI (HT29 colon) of 43200 nM. For the same molecule, the TGI (IGROV1 ovarian) was 44900 nM, the TGI (K-562 leukemia) was 74000 nM and the TGI (KM12 colon) was 53300 nM. For the same molecule, the TGI (LOX IMVI melanoma) was 36700 nM, the TGI (M14 melanoma) was 31700 nM and the TGI (MCF7 breast) was 29200 nM. The TGI (MDA-MB-231 breast) was 38300 nM, the TGI (MDA-MB-435) was 31100 nM and the TGI (MOLT-4 leukemia) was 47000 nM. It also gave a TGI (NCI-H226 lung) of 39200 nM, a TGI (NCI-H23 lung) of 38800 nM and a TGI (NCI-H460 lung) of 39700 nM. It also gave a TGI (NCI-H522 lung) of 12000 nM, a TGI (NCI/ADR-RES ovarian) of 99400 nM and a TGI (OVCAR-3 ovarian) of 31800 nM. The TGI (OVCAR-4 ovarian) was 46000 nM, the TGI (OVCAR-5 ovarian) was 33000 nM and the TGI (OVCAR-8 ovarian) was 56200 nM. For the same molecule, the TGI (PC-3 prostate) was 33300 nM, the TGI (RPMI-8226 leukemia) was 31700 nM and the TGI (RXF 393 renal) was 31900 nM. The TGI (SF-268 CNS) was 50800 nM, the TGI (SF-295 CNS) was greater than 100000 nM and the TGI (SF-539 CNS) was 29300 nM. It also gave a TGI (SK-MEL-2 melanoma) of 35800 nM, a TGI (SK-MEL-28 melanoma) of 31600 nM and a TGI (SK-MEL-5 melanoma) of 34500 nM. It also gave a TGI (SK-OV-3 ovarian) greater than 100000 nM, a TGI (SN12C renal) of 42600 nM and a TGI (SNB-19 CNS) greater than 100000 nM. It also gave a TGI (SNB-75 CNS) of 46700 nM, a TGI (SR leukemia) greater than 100000 nM and a TGI (SW-620 colon) of 40800 nM. The TGI (T-47D breast) was 32200 nM, the TGI (TK-10 renal) was 30800 nM and the TGI (U251 CNS) was 37700 nM. The TGI (UACC-257 melanoma) was 41300 nM, the TGI (UACC-62 melanoma) was 66800 nM and the TGI (UO-31 renal) was 28400 nM.
